Experimental data as given in the supplement of paper PMC8882468.

Key:
Experiment in all cases: CTG-3D luminescence at 96 h relative to day-0 seeding control (ratio to day 0); higher = more growth / less cytotoxicity; PDxO 3D drug screen, 96 h, CTG-3D normalised to day-0 seeding control.
[1] = system: HCI-001 (organoid from a triple-negative breast cancer xenograft)
[2] = system: HCI-003.E2 (organoid from an ER-positive breast cancer xenograft)
[3] = system: HCI-027 (organoid from a triple-negative breast cancer xenograft)
[4] = system: HCI-012 (organoid from a breast cancer xenograft)
[5] = system: HCI-024 (organoid from a breast cancer xenograft)

CS(=O)(=O)c1ccc(C(=O)Nc2ccc(Cl)c(-c3ccccn3)c2)c(Cl)c1 [vismodegib]
CTG-3D luminescence at 96 h
Details	12.5 pM	0.00025 µM	0.005 µM	0.1 µM	1 µM	10 µM	100 µM	625 fM
[1], days in culture: 240	1.85	1.26	0.998	1.03	1.5	1.19	0.836	2.27
[1], days in culture: 260	2.49	1.08	2.27	1.74	1.57	1.91	0.909	1.99
[1], days in culture: 269	1.57	1.89	1.55	1.36	1.13	1.83	0.861	1.51
[1], days in culture: 327	2.09	1.61	2.29	1.87	1.93	1.2	1.19	1.94
[1], days in culture: 346	1.82	1.38	1.23	1.34	1.47	1.65	1.35	1.34
[1], days in culture: 364	1.66	1.26	1.67	1.34	1.47	1.71	1.1	1.64
[3], days in culture: 176	2.64	1.85	2.83	2.12	2.22	1.1	-0.204	2.79
[3], days in culture: 194	2.59	1.87	2.35	2.35	2.6	2.12	-0.0508	2.34
[3], days in culture: 201	3.03	3.03	3.44	2.6	3.36	1.74	0.019	3.54
[4], days in culture: 143	2.03	2.38	2.4	2.49	2.42	2.55	0.427	1.88
[4], days in culture: 162	2.64	2.72	2.08	2.88	2.4	2.69	0.492	3
[4], days in culture: 201	2.82	2.26	1.72	1.56	2.33	1.8	0.943	1.59
[5], days in culture: 105	1.78	1.57	1.53	1.77	1.64	1.97	1.09	1.64
[5], days in culture: 122	1.39	1.99	2.14	2.07	2.27	2.75	1.23	2.04
[5], days in culture: 163	1.93	2.3	1.87	2.29	2.2	2.36	1.4	2.01

[2]
Details	CTG-3D luminescence at 96 h
12.5 pM	1.92
0.00025 µM	2.03
0.005 µM	1.93
0.1 µM	2.17
1 µM	2.08
10 µM	1.96
100 µM	0.299
625 fM	1.94

Cc1nc(-c2cn3c(n2)-c2ccc(-c4cnn(C(C)(C)C(N)=O)c4)cc2OCC3)n(C(C)C)n1 [taselisib]
CTG-3D luminescence at 96 h
Details	12.5 pM	0.00025 µM	0.005 µM	0.1 µM	1 µM	10 µM	100 µM	625 fM
[1], days in culture: 240	1.68	0.982	1.07	0.482	0.567	0.383	0.093	1.22
[1], days in culture: 260	2.04	1.03	1.04	0.934	0.486	0.536	0.019	1.57
[1], days in culture: 269	1.61	1.56	1.43	1.21	0.629	0.576	0.0422	1.86
[1], days in culture: 327	1.4	1.39	1.7	1.66	0.874	0.542	0.213	1.84
[1], days in culture: 346	1.31	1.22	1.02	1.1	1.15	0.603	0.269	1.12
[1], days in culture: 364	1.5	1.06	1.37	0.786	0.791	0.737	0.0204	1.53
[3], days in culture: 176	1.91	1.52	2.2	1.11	1.31	0.095	0.0289	1.82
[3], days in culture: 194	1.73	1.53	1.35	1.11	1.6	0.208	0.00956	1.77
[3], days in culture: 201	2.55	2.73	2.59	1.88	1.72	0.173	0.031	2.81
[4], days in culture: 143	2.1	2.32	2.04	1.89	1.21	0.59	0.046	1.82
[4], days in culture: 162	2.56	2.08	1.72	2.19	1.1	0.703	0.0208	2.93
[4], days in culture: 201	2.64	2	1.44	1.62	1.56	0.385	0.0205	1.75
[5], days in culture: 105	1.47	1.44	1.54	1.77	1.34	0.981	0.403	1.9
[5], days in culture: 122	2.21	2.49	1.79	1.88	1.6	1.81	0.258	2.63
[5], days in culture: 163	1.36	2.13	1.7	2.36	2.06	1.62	0.316	2

[2]
Details	CTG-3D luminescence at 96 h
12.5 pM	2.19
0.00025 µM	2.28
0.005 µM	1.77
0.1 µM	0.633
1 µM	0.183
10 µM	0.0364
100 µM	0.0189
625 fM	2.14

C[C@@H]1COCCN1c1cc(C2([S@](C)(=N)=O)CC2)nc(-c2cc[nH]c3nccc2-3)n1 [ceralasertib]
CTG-3D luminescence at 96 h
Details	12.5 pM	0.00025 µM	0.005 µM	0.1 µM	1 µM	10 µM	100 µM	625 fM
[1], days in culture: 240	1.54	0.962	0.905	0.752	1.11	0.512	0.536	1.21
[1], days in culture: 260	1.68	0.899	1.81	1.66	1.19	0.492	0.35	1.32
[1], days in culture: 269	1.61	1.65	1.82	1.79	1.06	0.544	0.577	1.54
[1], days in culture: 327	1.41	1.4	1.77	1.47	1.36	0.335	0.479	1.44
[1], days in culture: 346	1.56	1.49	1.38	1.3	1.02	0.456	0.658	1.26
[1], days in culture: 364	1.44	1.19	1.23	1.16	0.732	0.301	0.319	1.52
[3], days in culture: 176	2	1.26	2.33	1.47	0.682	0.114	0.29	2.06
[3], days in culture: 194	1.7	1.54	1.32	1.62	0.748	0.111	0.232	1.56
[3], days in culture: 201	1.78	1.98	1.99	2.1	0.726	0.134	0.279	1.54
[4], days in culture: 143	2.09	2.04	2.05	2.14	1.8	0.748	0.319	2.02
[4], days in culture: 162	2.52	2.31	2.18	3.14	1.92	1.3	0.451	3.18
[4], days in culture: 201	2.62	2.22	1.56	1.68	2.3	0.577	0.973	1.75
[5], days in culture: 105	1.68	1.61	1.35	1.5	0.841	0.567	0.521	1.93
[5], days in culture: 122	2.12	2.11	1.89	2	1.23	0.742	0.54	2.57
[5], days in culture: 163	1.95	1.91	1.68	2.32	1.38	0.897	0.977	2.29

[2]
Details	CTG-3D luminescence at 96 h
12.5 pM	2.11
0.00025 µM	2.23
0.005 µM	2.12
0.1 µM	2.45
1 µM	1.51
10 µM	0.353
100 µM	0.0571
625 fM	2.11
